Square brackets hold non-standard residues; d marks the D form. Peptide text beside a SMILES is read from it. * marks the point of attachment. ξ: configuration not given here. ξF = NC(Cc1ccccc1)C(=O)O; Cbz = O=C(OCc1ccccc1)*
Columns and labels:
[1] = molecular target: T1, Angiotensin-converting enzyme 2 (Homo sapiens, UniProt Q9BYF1); test: Inhibition of SARS-CoV S binding to human recombinant ACE2 expressed in Escherichia coli BL21(DE3) incubated for 2 hrs by ELISA method
[2] = molecular target: T1, Angiotensin-converting enzyme 2; test: Inhibition of human recombinant ACE2 at 50 uM using (7Mca-Y-V-A- D -A-P- K(Knp) as a flurogenic substrate measured after 10 mins by fluorescence based analysis
SARS-CoV = test: Antiviral activity against SARS-CoV infected in African green monkey Vero cells assessed as viral growth inhibition; type: functional, organism-based; details: Severe acute respiratory syndrome-related coronavirus
SARS-CoV-2 = test: Antiviral activity against SARS-COV2 infected in African green monkey Vero B cells incubated for 48 hrs by ELISA; type: functional, organism-based; details: Severe acute respiratory syndrome coronavirus 2, Vero B
[3] = Inhibition of MERS-CoV S protein RBD (E367 to Y606 residues) expressed in Fc portion of the human IgG1 in CHO cells by chromatography method; design: species or system Middle East respiratory syndrome-related coronavirus
Mus musculus = test: Antiviral activity against MERS-COV infected in BALB/c mouse at 5 mg/kg; type: functional, organism-based
Human coronavirus 229E [4] = test: Antiviral activity against HCoV-229E; type: functional, organism-based
[5] = Antiviral activity against HCoV-NL63 assessed as viral growth inhibition; type: functional, Human coronavirus NL63
Human coronavirus OC43 = test: Antiviral activity against HCoV-OC43 assessed as viral growth inhibition; type: functional, organism-based; details: Betacoronavirus 1
[6] = Inhibition of MERS-CoV Main protease; design: species or system Middle East respiratory syndrome-related coronavirus
[7] = Antiviral activity against pseudovirus SARS-CoV spike protein infected in HeLa cells over expressing ACE2 assessed as inhibition on pseudovirus infection incubated for 52 hrs by luminescence based microplate reader analysis; type: functional, cell-based
Procathepsin L = Procathepsin L (Homo sapiens, UniProt P07711); test: Inhibition of human recombinant Cathepsin L […] using Z-FR-AMC as substrate incubated for 30 mins by fluorometric assay
Procathepsin L, sequence (P07711 whole entry): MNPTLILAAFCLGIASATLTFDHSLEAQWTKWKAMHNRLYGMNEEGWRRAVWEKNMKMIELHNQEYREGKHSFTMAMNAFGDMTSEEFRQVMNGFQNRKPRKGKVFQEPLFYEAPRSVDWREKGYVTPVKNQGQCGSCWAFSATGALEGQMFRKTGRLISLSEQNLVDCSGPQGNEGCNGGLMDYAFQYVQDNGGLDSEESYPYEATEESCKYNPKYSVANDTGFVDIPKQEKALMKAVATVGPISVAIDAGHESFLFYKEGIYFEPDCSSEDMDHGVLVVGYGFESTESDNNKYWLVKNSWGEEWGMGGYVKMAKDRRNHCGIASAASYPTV

[8] = Cytotoxicity against african green monkey Vero cells incubated for 3 days; type: toxicity, cell-based; details: chlorocebus sabaeus, time 3 day
[9] = Inhibition of clathrin mediated endocytosis (unknown origin); design: species or system Homo sapiens
[10] = Selectivity index, ratio of CC50 for African green monkey Vero cells to EC50 for SARS-CoV-2 nCoV-2019; type: toxicity; details: read-out: Selectivity Index
[11] = Cytotoxicity against African green monkey Vero cells by MTT assay; type: toxicity, cell-based; details: chlorocebus sabaeus
HeLa = test: Antiproliferative activity against human HeLa cells assessed as reduction in cell growth inhibition; type: functional, cell-based
Human coronavirus 229E [12] = test: Antiviral activity against HCoV-229E assessed as reduction of viral RNA level at 4 uM; type: functional, organism-based

T1 sequence (Q9BYF1 whole entry): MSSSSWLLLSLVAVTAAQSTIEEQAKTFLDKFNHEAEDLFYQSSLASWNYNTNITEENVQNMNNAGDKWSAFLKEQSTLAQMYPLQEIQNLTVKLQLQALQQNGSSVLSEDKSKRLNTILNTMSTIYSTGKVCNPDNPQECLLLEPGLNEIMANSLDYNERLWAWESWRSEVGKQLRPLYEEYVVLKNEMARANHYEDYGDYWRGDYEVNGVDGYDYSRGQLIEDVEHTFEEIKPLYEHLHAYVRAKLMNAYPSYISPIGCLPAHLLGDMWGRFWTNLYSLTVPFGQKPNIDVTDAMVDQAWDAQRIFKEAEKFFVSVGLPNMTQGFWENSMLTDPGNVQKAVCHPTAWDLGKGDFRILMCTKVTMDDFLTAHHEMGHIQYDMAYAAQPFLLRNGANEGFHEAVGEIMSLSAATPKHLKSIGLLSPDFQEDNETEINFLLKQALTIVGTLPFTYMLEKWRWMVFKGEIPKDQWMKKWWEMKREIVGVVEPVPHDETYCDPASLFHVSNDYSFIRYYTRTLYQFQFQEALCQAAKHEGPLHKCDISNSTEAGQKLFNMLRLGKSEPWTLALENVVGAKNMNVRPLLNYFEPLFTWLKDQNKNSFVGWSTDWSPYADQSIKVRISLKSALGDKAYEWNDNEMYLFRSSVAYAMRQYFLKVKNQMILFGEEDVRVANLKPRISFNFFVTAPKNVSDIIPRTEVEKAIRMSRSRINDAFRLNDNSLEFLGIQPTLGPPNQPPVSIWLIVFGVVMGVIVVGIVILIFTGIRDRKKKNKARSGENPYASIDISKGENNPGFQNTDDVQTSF

For `CC[C@H](C)[C@H](NC(=O)CNC(=O)[C@@H](NC(=O)[C@@H](NC(=O)[C@@H](NC(=O)[C@H](Cc1ccc(O)cc1)NC(=O)[C@@H](N)Cc1ccccc1)[C@@H](C)O)[C@@H](C)O)[C@@H](C)O)C(=O)NCC(=O)N[C@@H](Cc1ccc(O)cc1)C(=O)N[C@@H](CCC(N)=O)C(=O)N1CCC[C@@H]1C(=O)N[C@H](Cc1ccc(O)cc1)C(=O)O`, which IC50 [1] is on record?
Its IC50 is 0.00699 µM.

For `CCC[C@@H]([C@@H](CC(C)C)C(=O)N[C@@H](CCCCNC(=O)OCc1ccccc1)C(=O)Nc1nccs1)N(O)C=O`, which IC50 [2] is on record?
The IC50 was 0.001 µM.

Which EC50 (SARS-CoV) does the source give for `CC[C@H](C)[C@H](NC(=O)[C@H](C)NC(=O)[C@H](CCCCN)NC(=O)[C@H](CC(N)=O)NC(=O)[C@H](Cc1ccccc1)NC(=O)[C@H](CCC(N)=O)NC(=O)[C@H](CC(N)=O)NC(=O)[C@H](C)NC(=O)[C@@H](NC(=O)[C@H](CCC(N)=O)NC(=O)[C@H](CCCCN)NC(=O)[C@H](CCC(N)=O)NC(=O)[C@H](CC(N)=O)NC(=O)[C@H](CCC(=O)O)NC(=O)[C@@H](N)Cc1ccc(O)cc1)[C@@H](C)CC)C(=O)N[C@@H](CO)C(=O)N[C@@H](CCC(N)=O)C(=O)N[C@H](C(=O)N[C@@H](CCC(N)=O)C(=O)N[C@@H](CCC(=O)O)C(=O)N[C@@H](CO)C(=O)N[C@@H](CC(C)C)C(=O)N[C@H](C(=O)N[C@H](C(=O)N[C@H](C(=O)N[C@@H](CO)C(=O)N[C@H](C(=O)N[C@@H](C)C(=O)O)[C@@H](C)O)[C@@H](C)O)[C@@H](C)O)[C@@H](C)O)[C@@H](C)CC` here?
The EC50 was 1.61 µM.

Which EC50 (SARS-CoV-2) does the source give for `CC[C@H](C)[C@H](NC(=O)[C@H](Cc1ccc(O)cc1)NC(=O)[C@H](CO)NC(=O)[C@H](CCC(=O)O)NC(=O)[C@H](CC(N)=O)NC(=O)[C@H](CC(C)C)NC(=O)[C@H](C)NC(=O)[C@H](CCCCN)NC(=O)[C@@H](NC(=O)[C@@H](NC(=O)[C@H](CCC(N)=O)NC(=O)[C@H](CCC(N)=O)NC(=O)[C@H](CC(C)C)NC(=O)[C@H](CO)NC(=O)[C@H](CC(C)C)NC(=O)[C@H](CCSC)NC(=O)[C@H](CCC(=O)O)NC(=O)[C@H](Cc1ccc(O)cc1)NC(=O)[C@@H](NC(=O)[C@H](CC(C)C)NC(=O)[C@H](CC(=O)O)NC(=O)[C@H](CC(C)C)NC(=O)[C@H](CC(C)C)NC(=O)[C@@H](NC(=O)[C@@H](NC(=O)[C@H](CC(N)=O)NC(=O)[C@@H](NC(=O)[C@H](CCC(N)=O)NC(=O)[C@@H](NC(=O)[C@H](CC(C)C)NC(=O)[C@@H](N)CO)[C@@H](C)O)[C@@H](C)CC)[C@@H](C)O)[C@@H](C)O)[C@@H](C)O)C(C)C)C(C)C)C(=O)N[C@@H](CC(=O)O)C(=O)N[C@@H](CC(C)C)C(=O)N[C@@H](CCCCN)C(=O)N[C@@H](CCC(=O)O)C(=O)N[C@@H](CC(C)C)C(=O)O` here?
Its EC50 is > 1000 µM.

What about the IC50 [3] of the same compound?
The IC50 was 0.6 µM.

For `CC[C@H](C)[C@H](NC(=O)[C@H](C)NC(=O)[C@H](CCC(=O)O)NC(=O)[C@H](CCC(=O)O)NC(=O)[C@H](CC(C)C)NC(=O)[C@H](CCCCN)NC(=O)[C@H](CCCCN)NC(=O)[C@H](CCSC)NC(=O)[C@H](CCC(=O)O)NC(=O)[C@H](Cc1ccc(O)cc1)NC(=O)[C@H](CCC(=O)O)NC(=O)[C@H](CC(C)C)NC(=O)[C@H](CC(=O)O)NC(=O)[C@H](CC(C)C)NC(=O)[C@H](Cc1ccccc1)NC(=O)[C@@H](NC(=O)[C@@H](NC(=O)[C@H](CC(N)=O)NC(=O)[C@@H](NC(=O)[C@H](CCC(N)=O)NC(=O)[C@H](CC(=O)O)NC(=O)[C@H](CC(C)C)NC(=O)[C@@H](N)CO)[C@@H](C)CC)C(C)C)[C@@H](C)O)C(=O)N[C@@H](CCCCN)C(=O)N[C@@H](CCCCN)C(=O)N[C@@H](CC(C)C)C(=O)N[C@@H](CCC(=O)O)C(=O)N[C@@H](CCC(=O)O)C(=O)N[C@@H](CO)C(=O)N[C@@H](Cc1ccc(O)cc1)C(=O)N[C@H](C(=O)N[C@@H](CC(=O)O)C(=O)N[C@@H](CC(C)C)C(=O)N[C@@H](CCCCN)C(=O)N[C@@H](CCC(=O)O)C(=O)N[C@@H](CC(C)C)C(=O)O)[C@@H](C)CC`, which IC50 (Mus musculus) is on record?
The IC50 was 2.38 µM.

And the IC50 (Human coronavirus 229E [4])?
Its IC50 is 3.35 µM.

What about the IC50 [5] of the same compound?
The IC50 was 6.02 µM.

What about the IC50 (Human coronavirus OC43) of the same compound?
The IC50 was 1.81 µM.

And the IC50 [6]?
The IC50 was 0.19 µM.

Which EC50 [7] does the source give for `CC(C)[C@H](NC(=O)OCc1ccccc1)C(=O)NC(C=O)Cc1ccccc1` (stereo partly drawn) (Cbz-Val-[ξF]-aldehyde) here?
Its EC50 is 0.1 µM.

Which IC50 (Procathepsin L) does the source give for `CN(C)C(=O)COC(=O)Cc1ccc(OC(=O)c2ccc(NC(=N)N)cc2)cc1` [CAMOSTAT] here?
Its IC50 is 10 µM.

Which IC50 (SARS-CoV-2) does the source give for `CCN(CC)CCCC(C)Nc1ccnc2cc(Cl)ccc12` (stereo not drawn) [CHLOROQUINE] here?
The IC50 was 1.13 µM.

And the IC50 [2]?
Its IC50 is 1.13 µM.

What about the CC50 at 72 h [8] of the same compound?
The CC50 at 72 h was > 100 µM.

For `CN(C)CCCN1c2ccccc2Sc2ccc(Cl)cc21` [CHLORPROMAZINE], which IC50 [9] is on record?
Its IC50 is 7.24 µM.

With `CCN(CCO)CCCC(C)Nc1ccnc2cc(Cl)ccc12` (stereo not drawn) [HYDROXYCHLOROQUINE] as the compound, how does the IC50 [2] read?
The IC50 was 0.72 µM.

Which results are given for `CN1CCN(C(=O)N[C@@H](Cc2ccccc2)C(=O)N[C@H](/C=C/S(=O)(=O)c2ccccc2)CCc2ccccc2)CC1` [K-777]?
IC50 (Human coronavirus 229E [4]): 0.00148 µM; IC50 [5]: 0.00678 µM; IC50 [3]: 0.0461 µM; CC50 at 72 h [8]: > 10 µM

With `O=c1cc(-c2ccc(O)c(O)c2)oc2cc(O)cc(O)c12` [LUTEOLIN] as the compound, how does the selectivity ratio [10] read?
Its selectivity ratio is 14.6.

What about the CC50 at 72 h [8] of the same compound?
Its CC50 at 72 h is 155 µM.

For `CC(CN1c2ccccc2Sc2ccccc21)N(C)C` (stereo not drawn) [PROMETHAZINE], which IC50 [9] is on record?
The IC50 was 7.48 µM.

Which CC50 at 72 h [8] does the source give for `O=c1c(O)c(-c2ccc(O)c(O)c2)oc2cc(O)cc(O)c12` [QUERCETIN] here?
The CC50 at 72 h was 3320 µM.

For `CN1CCN(CCOc2cc(OC3CCOCC3)c3c(Nc4c(Cl)ccc5c4OCO5)ncnc3c2)CC1` [SARACATINIB], which CC50 [11] is on record?
The CC50 was > 50 µM.

What about the IC50 (HeLa) of the same compound?
Its IC50 is 2.4 µM.

And the IC50 (Human coronavirus 229E [12])?
Its IC50 is 5.1 µM.
